# According to patent publication US10980769B2, “Tiglien-3-one derivatives” (QBIOTICS PTY LTD, priority 2005, dated 2021):
# Entries after “also recorded” stand apart in the source; their conditions may differ.
# How the values were obtained:
# human prostate DU145 = experiment: Growth inhibition of cultured cells; format: cell-based
# Method: (§1) Briefly, a range of tumour cells including mouse melanoma, human melanoma, mouse squamous cell carcinoma, human breast, human colon, human leukemia and human lung and normal human cells including normal human fibroblasts were seeded at 2-5,000 per microtitre well (96-well plate) in 10% FCS-RPMI 1640 culture medium, treated, and allowed to grow until the controls were nearly confluent (5-6 days). The wells were then washed twice with PBS, fix with ethanol for a minimum of 5 minutes and washed with water. SRB solution (50 μL of 0.4% in 1% acetic acid) was added and left at room temperature for a minimum of 15 minutes. The plate was washed rapidly with tap water and then twice with 1% acetic acid. After addition of 100 μL/well of 10 mM Tris base (unbuffered, pH>9), plates were left for a minimum of 5 minutes, then the absorbance was read at 564 nm on the ELISA reader, with a 3 second prior shaking. After subtraction of a blank (wells with no cells, absorbance typically about 0.04), growth inhibition was calculated as % of the untreated control and plotted against dose.
# (§2) Briefly, a suspension of a range of tumour cells including mouse melanoma, human melanoma, mouse squamous cell carcinoma, human breast, human colon, human leukemia and human lung and normal human cells including normal human fibroblasts were seeded into round-bottom microtitre plates in 10% FCS-RPMI 1640 culture medium, treated and allowed to grow for 5-6 days. To measure cell growth, 20 μL of a combined MTS/PMS solution (Promega Cell ProliferationAssay Kit Cat #G5430) was added to each well of the 96 well assay plate. After 1-4 hours the plates were placed in the ELISA plate reader and the absorbance read at 490 nm. After subtraction of a blank (wells with no cells, absorbance typically about 0.4), growth inhibition was calculated as % of the untreated control and plotted against dose.
# human melanoma MM418c5 = experiment: Growth inhibition of cultured cells; format: cell-based
# Method: as §1, §2
# PKC = PKC activation in cultured tumour cells (scattering and growth inhibition of MCF7); format: cell-based, human; conditions: defined by scattering and growth inhibition of MCF7 breast cancer cells
# [1] = test system: NS1 murine myeloma cell line; experiment: CyTOX (Cy) chromogenic cytotoxicity bioassay; format: cell-based; conditions: for Cy LD99: weight of chemical in last well with activity, real value may be lower
# Text: CyTOX (alternatively referred to herein as Cy) is a microtitre plate bioassay use to identify potential antitumour actives. CyTOX is a chromogenic bioassay with broad application to a wide range of tumour and non-tumour cell lines.
# CyTOX features a liquid media into which the test compound has been incorporated together with a novel chromogen. As the cells grow and divide the chromogen is metabolised from purple in a single step process to a colourless metabolite. CyTOX was undertaken using NS1 murine myeloma cell line as a guide to mammalian cell toxicity.
# Briefly, in CyTOX the cells were applied to the media containing the test chemical and allowed to grow for 72 hours. The assay was monitored at 24, 48 and 72 hours and the active wells identified.
# Giardia spp. = experiment: TriTOX (Gi) anti-protozoan bioassay; format: cell-based
# Method: is a microtitre plate based chromogenic bioassay for the screening of anti-protozoan activity of pathogenic, anaerobic/microaerophilic protozoans for example Giardia spp. and Trichomonas spp. The bioassays are run under anaerobic conditions and features species specific chromogens. The minimum inhibitory concentrations (approximate LD99) are determined by the following method: stock solutions of the unknowns are serially diluted ½ to give 12 concentrations over a 2,048-fold range. Aliquots of each concentration(s) are applied to the wells of 96-well microtitre plates and diluted with media. […] The lowest concentration at which the compound is active is noted as the minimum inhibitory concentration (MIC). Additionally, microscopic inspection is carried out to identify any patterns of morphological change that may be consistent with a type of toxicity and therefore mode of action. Giardia spp. was utilized for this assay.
# fly eggs = experiment: DipteraTOX fly development bioassay; parameters: key: A value of A in DipG, Dip P or Dip H represents very active; a value of P represents active; conditions: 250 μg per mL in agar
# Method: DipteraTOX is referred to herein as DipG, DipP and DipH. DipG represents no grazing of larva. DipP represents no pupae formation and Dip H represents no hatching of flies. A value of A in DipG, Dip P or Dip H represents very active and a value of P represents active. In DipteraTox the fly eggs were applied to the surface of an agar matrix containing 250 μg per mL of the test chemical and allowed to hatch, develop and pupate for a period up of two weeks. The assay was monitored at two discrete times to determine the extent of grazing of the agar matrix at Week 1 and the presence of adult flies at Week 2.
# Bacillus subtilis = experiment: ProTOX (Bs) antibacterial bioassay; format: cell-based
# Text: ProTOX, (alternatively referred to herein as Bs) is an antibacterial bioassay, broadly applicable to most aerobic and anaerobic bacteria. The bioassay features a solid phase agar base into which the test compound has been incorporated together with a chromogen. As the bacteria multiply in the well, the chromogen is metabolised from blue in a two-step process to a colourless compound. Compounds with potent bactericidal activity inhibit bacterial metabolism of the chromogen while bacteriostatic compounds induce limited metabolism as indicated by an intermediate pink colour. ProTOX is broadly applicable to a range of gram-positive and gram-negative bacteria under aerobic and microaerophilic conditions. ProTOX assays were carried out using Bacillus subtilis.
# Briefly, in ProTOX, the bacteria (24 hour broth) were applied to the surface of an agar matrix containing the test sample and allowed to grow for 48 hours. The assay was monitored at 24 and 48 hours and the active wells noted. Known antibiotics yield consistent colour transitions which are concentration and time dependent. These patterns provide an important guide to the early recognition of interesting characteristics.
# Haemonchus contortus = experiment: NemaTOX (Ne) anthelmintic larval development bioassay
# Method: NemaTOX (alternatively referred to herein as Ne) is an anthelmintic bioassay, applicable to all parasitic nematodes with free-living life cycle stages, and can be used as a screen to detect activity and define the species spectrum of compounds against parasitic nematodes and examine the impact of pre-existing resistance to other anthelmintic classes on potency. Haemonchus contortus was utilised for this assay.
# The effect on larval development was determined in this assay by the method described by Gill et al. (1995) Int. J. Parasitol. 25: 463-470. Briefly, in this assay nematode eggs were applied to the surface of an agar matrix containing the test sample and allowed to develop through to the L3, infective stage (6 days). At this time the stage of larval development reached and any unusual features (deformity, paralysis, toxicity) were noted by microscopic examination.
# Trichophyton rubrum = experiment: MycoTOX (Tr) antifungal bioassay; format: cell-based
# Method: MycoTOX (alternatively referred to herein as Tr) is a non-chromogenic bioassay used to detect activity against filamentous fungal pathogens of plants and animals. The bioassay features a solid phase agar base into which the test compound has been incorporated. As the growth patterns of filamentous fungi are readily apparent on the agar surface the extent of mycelial growth, sporulation (if relevant to the species under investigation) and colour changes with maturation are measured.
# MycoTOX, involves a fungus (spore suspension or mycelial fragments) being applied to the surface of an agar matrix containing the test chemical and allowed to grow for a period of up to a week (depending on species). The assay is monitored at two discrete times to identify key development phases in the life cycle (for example mycelial growth and extent of sporulation) and the active wells noted. The monitoring times are dependent on the fungal species under investigation.
# The MycoTOX assays were carried out using Trichophyton rubrum. The MycoTOX test is alternatively referred to as Tr to indicate the use of Trichophyton rubrum.
# [2] = test system: normal human fibroblasts (NFF); experiment: Growth inhibition of cultured cells; format: cell-based
# Method: as §1, §2
# (§3) For growth inhibition assays, cells (2000-5000/well) were seeded in 96-well plates in duplicate, treated with drug next day and allowed to grow for a further 5-6 days. The plates were then washed in PBS (phosphate buffered saline, pH 7.2), fixed with ethanol and stained by addition of 50 μL 0.4% SRB (sulforhodamine) in 1% acetic acid. The plate was left at room temperature for a minimum of 15 minutes, then washed rapidly with tap water and then twice with 1% acetic acid. After addition of 100 μL/well of 10 mM Tris base (unbuffered, pH>9), plates were left for a minimum of 5 minutes, then the absorbance was read at 564 nm on the ELISA reader, with a 3 second prior shaking. After subtraction of a blank (wells with no cells, typically about 0.04), growth inhibition was calculated as % of the untreated control and plotted against dose.
# human leukemia K562 = experiment: Growth inhibition of cultured cells; format: cell-based
# Method: as §1, §2, §3
# human breast MCF-7 = experiment: Growth inhibition of cultured cells; format: cell-based; conditions: human breast MCF-7
# Method: as §1, §2, §3
# MCF-7 = experiment: Cell scattering of cultured cells; format: cell-based, human
# [3] = test system: K562 leukemia, MCF-7 breast cancer, Colo-205 colon cancer and D04 and SKMel-5 melanoma; experiment: In vitro growth inhibition profile, sensitive versus other cell lines; format: cell-based, human
# Method: In addition, scattering of MCF-7 and HT-29 colon tumour cells was observed, typical of PKC activators. […] Additionally, given their similarity in structure, EBI-47, EBI-59 and EBI-61 are also considered to be protein kinase C activators.
# as §3, with “dose. […]” for “dose.”
# MM96L cell line = experiment: Changes in morphology of cultured cells; format: cell-based, human
# [4] = weight of chemical in last well with activity, real value may be lower
Compound,Concentration of EB548.LA4.61-29/32 At which growth inhibition was observed (human prostate DU145),Concentration of EB548.LA4.61-29/32 At which growth inhibition was observed (human melanoma MM418c5),PKC activity (PKC),Cy Titre [1],Cy LD99 [1],Gi Titre (Giardia spp.),Gi LD99 (Giardia spp.; [4]),DipH (no hatching of flies) (fly eggs),Bs Titre (Bacillus subtilis),Ne Titre (Haemonchus contortus),Ne LD99 (Haemonchus contortus; [4]),Tr Titre (Trichophyton rubrum),Concentration of EB548.LA4.61-29/32 At which growth inhibition was observed [2],Concentration of EB548.LA4.61-29/32 At which growth inhibition was observed (human leukemia K562),Concentration of EB548.LA4.61-29/32 At which growth inhibition was observed (human breast MCF-7),DipP (no pupae formation) (fly eggs),scattering of MCF-7 cells (MCF-7),growth-inhibiting doses in sensitive cell lines lower than for other human tumour cell lines and normal human fibroblasts [3],change in morphology of MM96L cells (MM96L cell line)
"CCC(C)C(=O)OC1C(C)C2(O)C(C3OC3(CO)C(O)C3(O)C(=O)C(C)=CC32)C2C(C)(C)C12OC(=O)C(C)CC (centres unmarked) [EBI-47, 12,13-di-(2-methylbutanoyl)-6,7-epoxy-4,5,9,12,13,20-hexahydroxy-tigliaen-3-one]",10 µg/mL,0.03 µg/mL,yes,4,16 µg/mL,2,31 µg/mL,P,0/—,2,31 µg/mL,0/—,None observed at 10 μg/mL,0.1 µg/mL,0.03 µg/mL,,,,
"CCCCC/C=C/C=C/C=C/C(=O)OC1C(C)C2(O)C(C3OC3(CO)C(O)C3(O)C(=O)C(C)=CC32)C2C(C)(C)C12OC(=O)C(C)CC (centres unmarked) [EBI-59, 12-(dodeca-2,4,6-trienoyl)-13-(2-methylbutanoyl)-6,7-epoxy-4,5,9,12,13,20-hexahydroxy-1-tigliaen-3-one]",,,yes,16,3.9 µg/mL,,,A/A,0/—,0/—,,0/—,,,,A/A,,,
"tetradecanoyl phorbol acetate [TPA, reference compound]",,,,,,,,,,,,,,,,,scattering,approximately 100 fold,characteristic change to bipolar morphology; also recorded: extreme bipolar morphology
